This test has as its system 883617-216-R-J1-PDC complex spheroid viability. Kind of test: Anticancer human tumor 883617-216-R-J1-PDC patient-derived bladder carcinoma cell line growth inhibition. The note with it: for viability, T/C: stronger effect = lower value. Summed up: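 Complex spheroids of tumor cells with HUVEC and human MSCs, exposed to iadademstat combined with other agents. Each agent tested in half-log steps from near clinical Cmax (else 10 microM top), DMSO ≤0.25%.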

Setting [1] is: curve of first compound, second compound 0.1 µM.
Where [2] appears, read: curve of first compound, second compound 0.316 µM.
Setting [3] is: curve of first compound, second compound 1 µM.
[4] abbreviates: curve of first compound, second compound 3.16 µM.
Setting [5] is: curve of first compound, second compound 10 µM.
Where [6] appears, read: second compound 0.1 µM, first compound 0.0316 µM.
Where [7] appears, read: second compound 0.1 µM, first compound 0.1 µM.
Setting [8] is: second compound 0.316 µM, first compound 0.0316 µM.
[9] abbreviates: second compound 0.316 µM, first compound 0.1 µM.
The mark [10] stands for this setting: second compound 1 µM, first compound 0.0316 µM.
Where [11] appears, read: second compound 1 µM, first compound 0.1 µM.
[12] abbreviates: second compound 3.16 µM, first compound 0.0316 µM.
Where [13] appears, read: second compound 3.16 µM, first compound 0.1 µM.
[14] abbreviates: second compound 10 µM, first compound 0.0316 µM.
Where [15] appears, read: second compound 10 µM, first compound 0.1 µM.

“And” between values parts separate entries of the source, which are not always exact repeats. Equal entries are not always repeated.
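Further: exposure lasted seven days after three days of spheroid growth.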
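Wherever viability, T/C is given: 100% = DMSO vehicle control luminescence.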

As for `COc1ccc([C@@H](O)c2cc(-c3ncnc4cc(N5CCOCC5)ccc34)c(F)cc2Cl)nn1` + NC1CCC(NC2CC2c2ccccc2)CC1, the IC50 (usually the concentration that inhibits the measured activity by half) is, setting by setting: under setting [1], 1200 nM; under setting [2], 1370 nM; under setting [3], 1320 nM; under setting [4], 1080 nM; under setting [5], 1560 nM. Moreover, the viability, T/C (commonly the ratio of treated to control) reads like this: under setting [6], 97.8%; under setting [7], 90.3%; (second compound 0.1 µM, first compound 0.316 µM) 72%; (second compound 0.1 µM, first compound 1 µM) 50.2%; (second compound 0.1 µM, first compound 3.16 µM) 38.2%; (second compound 0.1 µM, first compound 10 µM) 20.7%. Also, the viability, T/C by setting is: under setting [8], 103%; under setting [9], 90.8%; (second compound 0.316 µM, first compound 0.316 µM) 73.6%; (second compound 0.316 µM, first compound 1 µM) 53.2%; (second compound 0.316 µM, first compound 3.16 µM) 38.5%; (second compound 0.316 µM, first compound 10 µM) 19.2%. For the same compound, the viability, T/C is, setting by setting: under setting [10], 101%; under setting [11], 91.3%; (second compound 1 µM, first compound 0.316 µM) 83.2%; (second compound 1 µM, first compound 1 µM) 52.7%; (second compound 1 µM, first compound 3.16 µM) 35.1%; (second compound 1 µM, first compound 10 µM) 21%. In addition, the viability, T/C by setting is: under setting [12], 97.6%; under setting [13], 93.2%; (second compound 3.16 µM, first compound 0.316 µM) 73.7%; (second compound 3.16 µM, first compound 1 µM) 51.7%; (second compound 3.16 µM, first compound 3.16 µM) 32.1%; (second compound 3.16 µM, first compound 10 µM) 21.9%. Further, the viability, T/C was 100% under setting [14]; 93.2% under setting [15]; 70.2% (second compound 10 µM, first compound 0.316 µM); 56.3% (second compound 10 µM, first compound 1 µM); 41.4% (second compound 10 µM, first compound 3.16 µM); 19.8% (second compound 10 µM, first compound 10 µM).
Consider `COc1cc(C2c3cc4c(cc3C(OC3OC5COC(C)OC5C(O)C3O)C3COC(=O)C23)OCO4)cc(OC)c1O` (stereo unspecified) + NC1CC1c1ccc(-c2cccc(O)c2)cc1, for which the IC50 is, setting by setting: under setting [1], 163 nM; under setting [2], 156 nM; under setting [3], 92.8 nM; under setting [4], 76.5 nM; under setting [5], 58 nM. Further, the viability, T/C (second compound 0.1 µM, first compound 0.00949 µM) was 99.3%; the viability, T/C (second compound 0.1 µM, first compound 0.03 µM) was 73%; the viability, T/C (second compound 0.1 µM, first compound 0.0949 µM) is 56.1%; the viability, T/C (second compound 0.1 µM, first compound 0.3 µM) is 43.9%; the viability, T/C (second compound 0.1 µM, first compound 0.949 µM) was 35.4%; the viability, T/C (second compound 0.1 µM, first compound 3 µM) is 31.6%. The viability, T/C runs as follows: (second compound 0.316 µM, first compound 0.00949 µM) 103%; (second compound 0.316 µM, first compound 0.03 µM) 79.6%; (second compound 0.316 µM, first compound 0.0949 µM) 55.6%; (second compound 0.316 µM, first compound 0.3 µM) 41.9%; (second compound 0.316 µM, first compound 0.949 µM) 39.8%; (second compound 0.316 µM, first compound 3 µM) 34.9%. In addition, the viability, T/C is 106% (second compound 1 µM, first compound 0.00949 µM); 81% (second compound 1 µM, first compound 0.03 µM); 48.8% (second compound 1 µM, first compound 0.0949 µM); 38.8% (second compound 1 µM, first compound 0.3 µM); 41.3% (second compound 1 µM, first compound 0.949 µM); 31.4% (second compound 1 µM, first compound 3 µM). Further, the viability, T/C runs as follows: (second compound 3.16 µM, first compound 0.00949 µM) 90.6%; (second compound 3.16 µM, first compound 0.03 µM) 67.7%; (second compound 3.16 µM, first compound 0.0949 µM) 43.7%; (second compound 3.16 µM, first compound 0.3 µM) 37.7%; (second compound 3.16 µM, first compound 0.949 µM) 33.5%; (second compound 3.16 µM, first compound 3 µM) 27.9%. The viability, T/C (second compound 10 µM, first compound 0.00949 µM) was 82.4%; the viability, T/C (second compound 10 µM, first compound 0.03 µM) is 59.5%; the viability, T/C (second compound 10 µM, first compound 0.0949 µM) was 37.4%; the viability, T/C (second compound 10 µM, first compound 0.3 µM) was 44.5%; the viability, T/C (second compound 10 µM, first compound 0.949 µM) was 31.9%; the viability, T/C (second compound 10 µM, first compound 3 µM) was 28.5%.
For the compound `COc1ccc([C@@H](O)c2cc(-c3ncnc4cc(N5CCOCC5)ccc34)c(F)cc2Cl)nn1`, the viability, T/C reads like this: (compound 0.0316 µM) 91.2% and 99.6%; (compound 0.1 µM) 89.8% and 86.9%; (compound 0.316 µM) 67.2% and 52.7%; (compound 1 µM) 48.6% and 41.2%; (compound 3.16 µM) 37.1% and 26.7%; (compound 10 µM) 22.2% and 14.9%. Moreover, where the note is “curve of compound”, the IC50 is 1000 nM and 524 nM.
With `CC(C)CC(NC(=O)C(Cc1ccccc1)NC(=O)c1cnccn1)B(O)O` (stereo unspecified), the viability, T/C is 103% and 98.5% (compound 0.000316 µM); 95.8% and 43.5% (compound 0.001 µM); 13.8% and 0.88% (compound 0.00316 µM); 1.11% and 0.16% (compound 0.01 µM); 1.27% and 0.13% (compound 0.0316 µM); 0.62% and 0.21% (compound 0.1 µM). Moreover, where the note is “curve of compound”, the IC50 is 1.9 nM and 0.872 nM.
Regarding `Cn1ncnc1C1c2n[nH]c(=O)c3cc(F)cc(c23)NC1c1ccc(F)cc1` (stereo unspecified) + NC1CC1c1ccc(-c2cccc(O)c2)cc1, the IC50 turned out to be 15.1 nM under setting [1]; 16.2 nM under setting [2]; 12.4 nM under setting [3]; 8.5 nM under setting [4]; 6.41 nM under setting [5]. Also, the viability, T/C is 105% (second compound 0.1 µM, first compound 0.000316 µM); 95.4% (second compound 0.1 µM, first compound 0.001 µM); 76.4% (second compound 0.1 µM, first compound 0.00316 µM); 53% (second compound 0.1 µM, first compound 0.01 µM); 44.1% under setting [6]; 37.8% under setting [7]. Further, the viability, T/C (second compound 0.316 µM, first compound 0.000316 µM) is 116%; the viability, T/C (second compound 0.316 µM, first compound 0.001 µM) was 103%; the viability, T/C (second compound 0.316 µM, first compound 0.00316 µM) was 73%; the viability, T/C (second compound 0.316 µM, first compound 0.01 µM) was 54.3%; the viability, T/C under setting [8] was 47.1%; the viability, T/C under setting [9] is 40.8%. Moreover, the viability, T/C by setting is: (second compound 1 µM, first compound 0.000316 µM) 118%; (second compound 1 µM, first compound 0.001 µM) 88.9%; (second compound 1 µM, first compound 0.00316 µM) 68.6%; (second compound 1 µM, first compound 0.01 µM) 50.2%; under setting [10], 43%; under setting [11], 37.8%. The viability, T/C runs as follows: (second compound 3.16 µM, first compound 0.000316 µM) 92.4%; (second compound 3.16 µM, first compound 0.001 µM) 93%; (second compound 3.16 µM, first compound 0.00316 µM) 62.6%; (second compound 3.16 µM, first compound 0.01 µM) 50.4%; under setting [12], 42.2%; under setting [13], 33.9%. In addition, the viability, T/C is 83.5% (second compound 10 µM, first compound 0.000316 µM); 64.2% (second compound 10 µM, first compound 0.001 µM); 58.1% (second compound 10 µM, first compound 0.00316 µM); 44.9% (second compound 10 µM, first compound 0.01 µM); 40.9% under setting [14]; 32.3% under setting [15].
For the compound `Nc1ncn(C2CC(O)C(CO)O2)c(=O)n1` (stereo unspecified), the viability, T/C was 103% and 98.2% (compound 0.00316 µM); 99.5% and 83.4% (compound 0.01 µM); 96.5% and 72.9% (compound 0.0316 µM); 86.3% and 58.4% (compound 0.1 µM); 73.2% and 54.2% (compound 0.316 µM); 67.8% and 49.4% (compound 1 µM). Also, the IC50 (curve of compound) was > 1000 nM and 870 nM.

For the origin of these results see PubChem BioAssay AID1918945 (Molecular Pharmacology Branch, DTP, NCI, 2023).
